Reference: patent publication US4007267A, “Antibiotic B-98891” (priority 1974, dated 1977)
In brackets after ≈: the same amount, converted by molar mass. Entries after “also recorded” stand apart in the source; their conditions may differ. Read-outs that look alike come from different tables or passages of the source.

Columns and labels:
[1] = tested on: certain gram-positive bacteria, gram-negative bacteria, phytopathogenic fungi and certain yeasts; assay: Antimicrobial spectrum, summary; assay type: cell-based; conditions: in vitro
Description: (§1) The antimicrobial spectrum of the antibiotic B-98891 as measured by the agar dilution and diffusion methods is shown in Table 3. The "diameter of inhibition zone" in the table represents the diameter of the inhibition zone formed around a paper disc(7 mm. in diameter) immersed in a 5000 μg/ml. solution of the present antibiotic.

[2] = tested on: Candida albicans IFO-0583; assay: Antimicrobial spectrum (in vitro), agar dilution and diffusion methods; assay type: cell-based; conditions: medium A, 28 °C, time 40
[3] = tested on: Cochliobolus miyabeanus IFO-5277; assay: as above; assay type: cell-based; conditions: medium A, 28 °C, time 40
[4] = tested on: Aspergillus niger IFO-4066; assay: as above; assay type: cell-based; conditions: medium A, 28 °C, time 40
[5] = tested on: Penicillium expansum IFO-7813; assay: as above; assay type: cell-based; conditions: medium A, 28 °C, time 40
[6] = tested on: powdery mildew of rose; assay: Control test of the powdery mildew of rose (Super Star); assay type: in vivo
Description: (§2) For this test, rose (Rosa spp.) plants were grown in pots at a green-house.As test plants (forma species: Super Star and Arlene Francis) were used in groups of 3 pots per treatment. […] The number of diseased leaflets on three branches per pot was investigated 7 days after the third application and the percentage of diseased leaflets relative to the total number of leaflets investigated was calculated.

[7] = tested on: powdery mildew of barley; assay: Control test of powdery mildew of barley (pots); assay type: in vivo, Erysiphe graminis
[8] = tested on: Guignardia laricina IFO-7888; assay: Antimicrobial spectrum (in vitro), agar dilution and diffusion methods; assay type: cell-based; conditions: medium A, 28 °C, time 88
Description: as §1
(§3) A 3.0 % sucrose, 0.2 % L-asparagine, 0.3 % NH4 NO3, 0.1 % KH2 PO4, 0.1 % MgSO4.7H2 O, 0.001 % versenol (manufactured by Dow Chemical Co.; an iron chelate compound; content of iron-sodium ethanol ethylene diamine triacetate is 57.04 %), 1.5 % agar (pH 7) Before use, the following vitamins are added to the medium to the indicated final concentrations. 1 μg/ml. thiamine, 1 μg/ml. riboflavin, 1 μg/ml. calcium pantothenate, 1 μg/ml. niacin, 0.005 μg/ml. biotin, 0.5 μg/ml. folic acid, 2 μg/ml. pyridoxine hydrochloride, 0.5 μg/ml. p-aminobenzoic acid, 0.0002 μg/ml. cyanocobalamin

[9] = tested on: Botrytis cinerea TKF-12; assay: as above; assay type: cell-based; conditions: medium A, 20 °C, time 88
Description: as §1, §3

[10] = tested on: Phytophthora infestans (Montagne) de Bary; assay type: in vivo
[11] = tested on: Penicillium chrysogenum IFO-4626; assay: Antimicrobial spectrum (in vitro), agar dilution and diffusion methods; assay type: cell-based; conditions: medium A, 28 °C, time 40
[12] = tested on: Erysiphe graminis; assay: Activity against powdery mildew of barley (seedlings in test tubes); conditions: for Percent area of lesion: 18 °C, 7 days
Description: The unfolded leaves were inoculated with conidia of Erysiphe graminis using a small brush and each stock was kept in a test tube at 18° C for 7 days. The percent area of the resultant lesion was calculated to determine the effect of the test drug.

[13] = tested on: powdery mildew of oak tree; assay: Control test of powdery mildew of oak tree
Description: (§6) The control chemical was also similarly diluted with water.
This test was conducted with shoots of naturally grown oak (Quercus glauca Thunb.) trees about 10 years old. The fungicidal solutions prepared in the same manner as Test Example 1 were applied in mists.
The old mature leaves had already been severely diseased and, therefore, spontaneous infection of young leaves on the shoots was expected.
The number of treated leaves was 50 per group. The percent area of the lesion on treated leaves was investigated at 7 days after the treatment.

[14] = tested on: Japanese killifish; assay: Fish toxicity test; assay type: in vivo; conditions: 20 ppm, 7 days observation
[15] = tested on: Mycobacterium smegmatis ATCC-607; assay: Antimicrobial spectrum (in vitro), agar dilution and diffusion methods; assay type: cell-based; conditions: medium C, 37 °C, time 40
Description: as §1
(§4) C 3.0 % glycerin, 0.5 % Ehrlich's meat extract, 0.5 % polypeptone, 0.5 % NaCl, 1.5 % agar (pH 7.0)

[16] = tested on: Mycobacterium phlei IFO-3158; assay: as above; assay type: cell-based; conditions: medium C, 37 °C, time 40
Description: as §1, §4

[17] = tested on: Sphaerotheca fuliginea (Schlechtendahl) Pollacci; assay: Control test of powdery mildew of oriental melon; assay type: in vivo
[18] = tested on: Proteus vulgaris IFO-3045; assay: Antimicrobial spectrum (in vitro), agar dilution and diffusion methods; assay type: cell-based; conditions: medium B, 37 °C, time 20
Description: as §1
(§5) B 0.5 % ehrlich's meat extract, 0.5 % polypeptone, 0.5 % NaCl, 1.5 % agar (pH 7)

[19] = tested on: Staphylococcus aureus IFO-3061; assay: as above; assay type: cell-based; conditions: medium B, 37 °C, time 20
Description: as §1, §5

[20] = tested on: Escherichia coli IFO-3044; assay: as above; assay type: cell-based; conditions: medium B, 37 °C, time 20
Description: as §1, §5

[21] = tested on: Pseudomonas aeruginosa IFO-3080; assay: as above; assay type: cell-based; conditions: medium B, 37 °C, time 20
Description: as §1, §5

[22] = tested on: Bacillus subtilis IFO-3513; assay: as above; assay type: cell-based; conditions: medium B, 37 °C, time 20
Description: as §1, §5

[23] = tested on: powdery mildew of tobacco plant; assay: Control test of powdery mildew of tobacco plant
Description: as §6
Tobacco plants (Nicotiana tabacum L. f. MC) grown in pots, with the fourth mature leaf sufficiently unfolded, were prepared in a green-house, two pots per group, for this test. To encourage the onset of the disease, the pots of diseased plants were placed next to the test pots for spontaneous infection. The fungicidal solutions were prepared in the same manner as Test Example 1 and sprayed onto the test plants in two divided doses, each in sufficient volume, at intervals of 10 days. The percent area of the lesion was investigated 9 days and 15 days, respectively, after the last application.

[24] = tested on: Sclerotinia sclerotiorum IFO-9395; assay: Antimicrobial spectrum (in vitro), agar dilution and diffusion methods; assay type: cell-based; conditions: medium A, 28 °C, time 40
[25] = Acute toxicity in mice
[26] = tested on: powdery mildew of rose; assay: Control test of the powdery mildew of rose (Arlene Francis); assay type: in vivo
Description: as §2

[27] = Acute toxicity in rats
[28] = tested on: powdery mildew of apple plant; assay: Control test of powdery mildew of apple plant; assay type: in vivo; conditions: 12 days
Description: as §6
The seedlings of the apple (Malus pumila Miller var. domestica Schneider f. Rall's Janet) in their 5- to 8-leaf stage were employed. The pathogenic fungi on diseased leaves of an apple plant were dusted over the tops of the seedlings which, then, were kept in a green-house. […] After the application, the seedlings were further grown in a green-house. After 12 days, the percent area of the lesion was investigated. The test was conducted in hexaplicate for each group.

[29] = tested on: Saccharomyces cerevisiae IFO-0209; assay: Antimicrobial spectrum (in vitro), agar dilution and diffusion methods; assay type: cell-based; conditions: medium A, 28 °C, time 40
[30] = tested on: Trichophyton mentagrophytes IFO-5809; assay: as above; assay type: cell-based; conditions: medium D, 28 °C, time 88
Description: as §1

[31] = tested on: Sphaerotheca fuliginea Pollacci; assay: Control effect against drug-resistant powdery mildew on cucumber; conditions: 40 ppm, 7 days
Description: as §6
The leaves of a cucumber plant (Cucumis sativus L. f. Suyo) infected with powdery mildew were flipped over a 1-month cucumber plant in a pot so that the latter was inoculated with Sphaerotheca fuliginea Pollacci. After 1 day, the fungicidal solutions prepared in the same manner as Test Example 1 were sprayed in sufficient volume over the plant. After about 14 days, the fungal growth formed were used to further inoculate intact cucumber plants. One day after the inoculation, fungicidal solution was sprayed and, after 7 days, the percent area of the lesion was determined.

[32] = tested on: powdery mildew of pepper; assay: Control test of powdery mildew of pepper
Description: as §6
The reverse sides of unfolded leaves of pot-grown pepper plants (9 to 10-leaf stage, Capsicum annuum L. f. California Wonder) were inoculated, by dusting, with the pathogenic fungi from infected leaves. Two days later, the leaves were sprayed with adequate volume of test solutions as in Test Example 1. Then, the plants were grown and cared in a green-house and, after timed intervals, the percent area of fungal growth was determined. This test was performed in duplicate for each group.

[33] = tested on: Rhodotorula rubra IFO-0870; assay: Antimicrobial spectrum (in vitro), agar dilution and diffusion methods; assay type: cell-based; conditions: medium A, 28 °C, time 40
[34] = tested on: Pyricularia oryzae IFO-5279; assay type: cell-based; conditions: medium A, 28 °C, time 40

NC(N)=NCC(O)CC(O)(C(=O)O)[C@H]1O[C@@H](n2cc(CO)c(N)nc2=O)C=C[C@@H]1NC(=O)[C@@H](N)CO (some centres unmarked) [B-98891]
antimicrobial activity [1]: weakly active | Minimal inhibitory concentration [2]: > 500 µg/mL | Minimal inhibitory concentration [3]: > 500 µg/mL | Diameter of inhibition zone ([3]; paper disc 7 mm, 5000 μg/ml): 15 mm | Minimal inhibitory concentration [4]: > 500 µg/mL | Minimal inhibitory concentration [5]: 100 µg/mL (≈ 194 µM) | Diameter of inhibition zone ([5]; paper disc 7 mm, 5000 μg/ml): 25 mm | Percent of diseased leaflet ([6]; 40 ppm): 5.6% | Percent of diseased leaflet ([6]; 80 ppm): 3.2% | Percent of diseased leaflet ([6]; 160 ppm): 2.6% | Percent area of lesions ([7]; 15.6 ppm, 6th leaf, A: 10 days after first application): 0.4% | Percent area of lesions ([7]; 15.6 ppm, 6th leaf, B: 10 days after second application): 2.1% | Percent area of lesions ([7]; 15.6 ppm, 6th leaf, C: 10 days after third application): 0.8% | Percent area of lesions ([7]; 15.6 ppm, 9th leaf, B: 10 days after second application): 2.3% | Percent area of lesions ([7]; 15.6 ppm, 9th leaf, C: 10 days after third application): 10.5% | Percent area of lesions ([7]; 31.2 ppm, 6th leaf, A: 10 days after first application): 0.3% | Percent area of lesions ([7]; 31.2 ppm, 6th leaf, B: 10 days after second application): 2.0% | Percent area of lesions ([7]; 31.2 ppm, 6th leaf, C: 10 days after third application): 1.3% | Percent area of lesions ([7]; 31.2 ppm, 9th leaf, B: 10 days after second application): 0.3% | Percent area of lesions ([7]; 31.2 ppm, 9th leaf, C: 10 days after third application): 1.3% | Percent area of lesions ([7]; 62.5 ppm, 6th leaf, A: 10 days after first application): 0.1% | Percent area of lesions ([7]; 62.5 ppm, 6th leaf, B: 10 days after second application): 0.1% | Percent area of lesions ([7]; 62.5 ppm, 6th leaf, C: 10 days after third application): 0% | Percent area of lesions ([7]; 62.5 ppm, 9th leaf, B: 10 days after second application): 0.5% | Percent area of lesions ([7]; 62.5 ppm, 9th leaf, C: 10 days after third application): 0.4% | Minimal inhibitory concentration [8]: 100 µg/mL (≈ 194 µM) | Diameter of inhibition zone ([8]; paper disc 7 mm, 5000 μg/ml): 18 mm | Minimal inhibitory concentration [9]: 250 µg/mL (≈ 486 µM) | Diameter of inhibition zone ([9]; paper disc 7 mm, 5000 μg/ml): 15 mm | Degree of sporulation ([10]; 250 ppm): Moderate | Percent area of lesions ([10]; 250 ppm): 100% | Degree of sporulation ([10]; 500 ppm): None | Percent area of lesions ([10]; 500 ppm): 0% | Minimal inhibitory concentration [11]: > 500 µg/mL | Diameter of inhibition zone ([11]; paper disc 7 mm, 5000 μg/ml): 13 mm | Percent area of lesion ([12]; 3.12 ppm): 40% | Percent area of lesion ([12]; 6.25 ppm): 26% | Percent area of lesion ([12]; 12.5 ppm): 0% | Percent area of lesion ([12]; 25 ppm): 0% | Percent area of lesion ([12]; 50 ppm): 0% | onset control activity ([12]; compared with the commercially available chemical (Benomyl wettable powder)): more potent onset control activity than the commercially available chemical | activity against the causative agent of powdery mildew of barley (Erysiphe graminis) (summary) ([12]; in vivo): characteristically high activity | Percent area of lesion ([13]; 40 ppm, 7 days): 8.3% | Percent area of lesion ([13]; 40 ppm, 14 days): 26.4% | Percent area of lesion ([13]; 80 ppm, 7 days): 1.1% | Percent area of lesion ([13]; 80 ppm, 14 days): 1.5% | Percent area of lesion ([13]; 160 ppm, 7 days): 0.6% | Percent area of lesion ([13]; 160 ppm, 14 days): 0.5% | fish toxicity [14]: no toxic effect; also recorded: substantially harmless to fish | Minimal inhibitory concentration [15]: 250 µg/mL (≈ 486 µM) | Diameter of inhibition zone ([15]; paper disc 7 mm, 5000 μg/ml): 24 mm | Minimal inhibitory concentration [16]: 50 µg/mL (≈ 97.2 µM) | Diameter of inhibition zone ([16]; paper disc 7 mm, 5000 μg/ml): 27 mm | Percent area of the lesion ([17]; 40 ppm, 7 days): 0% | Percent area of the lesion ([17]; 40 ppm, 14 days): 19.0% | Percent area of the lesion ([17]; 40 ppm, 21 days): 40.0% | Percent area of the lesion ([17]; 80 ppm, 7 days): 1.5% | Percent area of the lesion ([17]; 80 ppm, 14 days): 7.0% | Percent area of the lesion ([17]; 80 ppm, 21 days): 24.0% | Percent area of the lesion ([17]; 160 ppm, 7 days): 0.6% | Percent area of the lesion ([17]; 160 ppm, 14 days): 0.6% | Percent area of the lesion ([17]; 160 ppm, 21 days): 5.0% | Minimal inhibitory concentration [18]: > 500 µg/mL | Diameter of inhibition zone ([18]; paper disc 7 mm, 5000 μg/ml): 11 mm | Minimal inhibitory concentration [19]: > 500 µg/mL | Diameter of inhibition zone ([19]; paper disc 7 mm, 5000 μg/ml): 10 mm | Minimal inhibitory concentration [20]: 500 µg/mL (≈ 972 µM) | Diameter of inhibition zone ([20]; paper disc 7 mm, 5000 μg/ml): 14 mm | Minimal inhibitory concentration [21]: > 500 µg/mL | Minimal inhibitory concentration [22]: > 500 µg/mL | Diameter of inhibition zone ([22]; paper disc 7 mm, 5000 μg/ml): 14 mm | Percent area of lesion ([23]; 40 ppm, 9 days): 11.6% | Percent area of lesion ([23]; 40 ppm, 15 days): 20.4% | Percent area of lesion ([23]; 80 ppm, 9 days): 10.0% | Percent area of lesion ([23]; 80 ppm, 15 days): 13.2% | Percent area of lesion ([23]; 160 ppm, 9 days): 6.0% | Percent area of lesion ([23]; 160 ppm, 15 days): 8.5% | Minimal inhibitory concentration [24]: 500 µg/mL (≈ 972 µM) | Diameter of inhibition zone ([24]; paper disc 7 mm, 5000 μg/ml): 20 mm | toxicity in mice (summary) [25]: mild | LD50 ([25]; intravenous): > 500 mg/kg | LD50 ([25]; oral): > 2000 mg/kg | Percent of diseased leaflet ([26]; 40 ppm): 14.9% | Percent of diseased leaflet ([26]; 80 ppm): 6.7% | Percent of diseased leaflet ([26]; 160 ppm): 2.2% | toxicity in rats (summary) [27]: mild | LD50 ([27]; intravenous): > 500 mg/kg | LD50 ([27]; oral): > 2000 mg/kg | Percent area of the lesion ([28]; 40 ppm): 0.9% | Percent area of the lesion ([28]; 80 ppm): 0.6% | Percent area of the lesion ([28]; 160 ppm): 0% | Minimal inhibitory concentration [29]: > 500 µg/mL | Diameter of inhibition zone ([29]; paper disc 7 mm, 5000 μg/ml): 12 mm | Minimal inhibitory concentration [30]: 500 µg/mL (≈ 972 µM) | Percent area of lesion ([31]; inoculum: control (untreated)): 15.8% | Percent area of lesion ([31]; inoculum: lesions after application of B-98891 (80ppm)): 18.3% | Percent area of lesion ([31]; inoculum: lesions after application of Benlate WP (250 ppm)): 21.7% | Percent area of the lesion ([32]; 80 ppm, 7 days): 7.9% | Percent area of the lesion ([32]; 80 ppm, 10 days): 10.3% | Percent area of the lesion ([32]; 160 ppm, 7 days): 5.0% | Percent area of the lesion ([32]; 160 ppm, 10 days): 4.6% | Minimal inhibitory concentration [33]: 50 µg/mL (≈ 97.2 µM) | Diameter of inhibition zone ([33]; paper disc 7 mm, 5000 μg/ml): 80 mm | Minimal inhibitory concentration [34]: > 500 µg/mL
